Laboratory results published in patent US20230167467A1, “METHODS AND COMPOSITIONS FOR THE PRODUCTION OF ISOBUTENE” (University of Alaska Anchorage, priority 2020, published 2023).

How the values were obtained:
[1] = test system: Engineered strains of E. coli; type: cell-based; settings: for number of genes with significant changes in expression: vs control, Bon Ferroni corrected p-value<0.05
[2] = purified MVD on 3-HIV; cited from earlier work
[3] = after solvent exposure, vs positive control

CCCCCC [hexane]
expression of acid resistance genes (gad, adi families) [1]: downregulated
expression of chaperone proteins groLS, spy, and dnaJK [1]: highly upregulated
expression of dihydroxyacetone kinase genes dhaKLM [1]: upregulated
expression of flagellar protein synthesis and assembly genes [1]: downregulated
expression of gadE and adiY [1]: significantly downregulated
expression of galactitol metabolism genes gatABD [1]: upregulated
expression of glpABC (glycerol to glycerone phosphate) [1]: upregulated
expression of heat shock proteins and chaperones hslJORUV [1]: strongest increases
expression of ibpAB and clpAB (protein protection and repair) [1]: strongest increases
expression of marABC (multiple antibiotic resistance) [1]: upregulated
expression of nitrate reductase genes narGHJKP [1]: upregulated
expression of phage shock genes pspABCDE [1]: highly upregulated
change in expression of gene adiA [1, 3]: −4.64 ± 0.88
change in expression of gene adiC [1, 3]: −4.53 ± 1.04
change in expression of gene adiY [1, 3]: −3.19 ± 0.66
change in expression of gene bhsA [1, 3]: 3.01 ± 0.60
change in expression of gene bssR [1, 3]: 1.50 ± 0.44
change in expression of gene bssS [1, 3]: 5.47 ± 0.84
change in expression of gene clpA [1, 3]: 2.49 ± 0.63
change in expression of gene clpB [1, 3]: 5.02 ± 0.69
change in expression of gene clpP [1, 3]: 1.52 ± 0.59
change in expression of gene coaA [1, 3]: −2.34 ± 0.88
change in expression of gene coaD [1, 3]: 0.57 ± 0.90
change in expression of gene cspA [1, 3]: −4.08 ± 0.57
change in expression of gene cspB [1, 3]: −4.25 ± 1.30
change in expression of gene cspC [1, 3]: −2.22 ± 0.90
change in expression of gene cspD [1, 3]: 2.07 ± 0.57
change in expression of gene cspE [1, 3]: −0.53 ± 0.63
change in expression of gene cspF [1, 3]: −3.67 ± 1.04
change in expression of gene dhaK [1, 3]: 3.83 ± 0.58
change in expression of gene dhaL [1, 3]: 2.77 ± 0.62
change in expression of gene dnaJ [1, 3]: 4.46 ± 0.69
change in expression of gene dnaK [1, 3]: 4.31 ± 0.66
change in expression of gene fabA [1, 3]: −0.96 ± 0.75
change in expression of gene fabB [1, 3]: 2.15 ± 0.66
change in expression of gene fabD [1, 3]: −0.89 ± 0.52
change in expression of gene flgA [1, 3]: −2.91 ± 1.55
change in expression of gene flgB [1, 3]: −6.86 ± 1.62
change in expression of gene flgC [1, 3]: −7.12 ± 2.02
change in expression of gene flgD [1, 3]: −6.97 ± 1.94
change in expression of gene flgE [1, 3]: −5.83 ± 1.20
change in expression of gene flgF [1, 3]: −5.93 ± 1.66
change in expression of gene flgG [1, 3]: −5.59 ± 1.51
change in expression of gene flgH [1, 3]: −4.58 ± 1.75
change in expression of gene gabD [1, 3]: −1.81 ± 1.34
change in expression of gene gabP [1, 3]: −3.20 ± 1.33
change in expression of gene gabT [1, 3]: −1.73 ± 1.30
change in expression of gene gadA [1, 3]: −1.47 ± 0.68
change in expression of gene gadB [1, 3]: −0.69 ± 0.80
change in expression of gene gadC [1, 3]: −0.25 ± 0.80
change in expression of gene gadE [1, 3]: −2.22 ± 0.60
change in expression of gene gadW [1, 3]: −4.92 ± 0.97
change in expression of gene gadX [1, 3]: −2.95 ± 0.57
change in expression of gene gadY [1, 3]: −5.22 ± 0.81
change in expression of gene glpA [1, 3]: 7.69 ± 0.87
change in expression of gene glpB [1, 3]: 5.40 ± 0.63
change in expression of gene glpC [1, 3]: 6.04 ± 0.79
change in expression of gene groL [1, 3]: 4.16 ± 0.57
change in expression of gene groS [1, 3]: 4.25 ± 0.50
change in expression of gene hchA [1, 3]: 0.77 ± 0.60
change in expression of gene hslJ [1, 3]: 2.29 ± 0.65
change in expression of gene hslO [1, 3]: 3.04 ± 0.64
change in expression of gene hslR [1, 3]: 3.21 ± 0.65
change in expression of gene hslU [1, 3]: 3.61 ± 0.55
change in expression of gene hslV [1, 3]: 2.94 ± 0.61
change in expression of gene ibpA [1, 3]: 7.63 ± 1.21
change in expression of gene ibpB [1, 3]: 8.41 ± 1.50
change in expression of gene lhgO [1, 3]: −1.20 ± 1.67
change in expression of gene lipA [1, 3]: 0.42 ± 0.59
change in expression of gene lipB [1, 3]: −0.05 ± 0.63
change in expression of gene narG [1, 3]: 4.03 ± 0.65
change in expression of gene narH [1, 3]: 3.23 ± 0.61
change in expression of gene narI [1, 3]: 2.02 ± 0.92
change in expression of gene narJ [1, 3]: 2.26 ± 0.68
change in expression of gene narK [1, 3]: 2.20 ± 0.84
change in expression of gene potA [1, 3]: −2.87 ± 0.80
change in expression of gene potB [1, 3]: −2.22 ± 1.29
change in expression of gene potC [1, 3]: −1.06 ± 1.18
change in expression of gene pspA [1, 3]: 8.97 ± 0.55
change in expression of gene pspB [1, 3]: 7.11 ± 0.68
change in expression of gene rpoA [1, 3]: 0.76 ± 0.44
change in expression of gene rpoB [1, 3]: 0.54 ± 0.40
change in expression of gene rpoC [1, 3]: 1.02 ± 0.39
change in expression of gene rpoD [1, 3]: 3.14 ± 0.70
change in expression of gene rpoE [1, 3]: −2.64 ± 0.62
change in expression of gene rpoH [1, 3]: 0.31 ± 0.52
change in expression of gene rpoN [1, 3]: −1.24 ± 0.49
change in expression of gene rpoS [1, 3]: 0.42 ± 0.47
change in expression of gene rpoZ [1, 3]: −0.98 ± 0.53
change in expression of gene spy [1, 3]: 4.12 ± 0.87
change in expression of gene tatA [1, 3]: −0.89 ± 0.51
change in expression of gene tatB [1, 3]: −0.66 ± 0.58
change in expression of gene tatC [1, 3]: −1.03 ± 1.08
change in expression of gene tatD [1, 3]: −2.65 ± 1.13
change in expression of gene tatE [1, 3]: 0.78 ± 0.63
number of genes with significant changes in expression [1]: 535 genes

CC(C)CO [isobutanol]
expression of RNAse adapter protein rapZ [1]: downregulation
expression of accBC (fatty acid biosynthesis) [1]: downregulated
expression of adiA [1]: downregulated
expression of bssRS (decreasing biofilm material) [1]: upregulated
expression of chaperone genes groLS and dnaJK [1]: increased expression
expression of gadABCE (acid resistance via GABA production) [1]: downregulated
expression of gatY and marCRAB loci [1]: upregulation
expression of glpABC (glycerol to glycerone phosphate) [1]: increased in expression
expression of heat shock proteins and chaperones hslJORUV [1]: upregulation
expression of ibpAB and clpAB (protein protection and repair) [1]: increased
expression of marA [1]: upregulated
change in expression of gene adiA [1, 3]: −2.97 ± 0.87
change in expression of gene adiC [1, 3]: −2.56 ± 1.03
change in expression of gene adiY [1, 3]: −0.17 ± 0.65
change in expression of gene bhsA [1, 3]: 4.78 ± 0.60
change in expression of gene bssR [1, 3]: −1.75 ± 1.29
change in expression of gene bssS [1, 3]: 4.08 ± 0.84
change in expression of gene clpA [1, 3]: 2.07 ± 0.63
change in expression of gene clpB [1, 3]: 4.51 ± 0.69
change in expression of gene clpP [1, 3]: 0.38 ± 0.59
change in expression of gene coaA [1, 3]: −3.09 ± 0.90
change in expression of gene coaD [1, 3]: −1.68 ± 0.97
change in expression of gene cspA [1, 3]: −4.88 ± 0.58
change in expression of gene cspB [1, 3]: −5.73 ± 1.38
change in expression of gene cspC [1, 3]: −3.36 ± 0.94
change in expression of gene cspD [1, 3]: 1.73 ± 0.58
change in expression of gene cspE [1, 3]: −1.94 ± 0.64
change in expression of gene cspF [1, 3]: −3.40 ± 1.07
change in expression of gene dhaK [1, 3]: 1.05 ± 0.59
change in expression of gene dhaL [1, 3]: −0.04 ± 0.64
change in expression of gene dnaJ [1, 3]: 3.71 ± 0.69
change in expression of gene dnaK [1, 3]: 4.53 ± 0.66
change in expression of gene fabA [1, 3]: −2.84 ± 0.81
change in expression of gene fabB [1, 3]: −0.39 ± 0.68
change in expression of gene fabD [1, 3]: −2.33 ± 0.53
change in expression of gene flgA [1, 3]: −3.05 ± 1.60
change in expression of gene flgB [1, 3]: −8.74 ± 1.90
change in expression of gene flgC [1, 3]: −8.87 ± 2.24
change in expression of gene flgD [1, 3]: −6.75 ± 2.03
change in expression of gene flgE [1, 3]: −4.68 ± 1.21
change in expression of gene flgF [1, 3]: −5.18 ± 1.70
change in expression of gene flgG [1, 3]: −6.73 ± 1.69
change in expression of gene flgH [1, 3]: −4.17 ± 1.80
change in expression of gene gabD [1, 3]: −2.21 ± 1.41
change in expression of gene gabP [1, 3]: −1.47 ± 1.32
change in expression of gene gabT [1, 3]: −1.57 ± 1.34
change in expression of gene gadA [1, 3]: −0.71 ± 0.69
change in expression of gene gadB [1, 3]: 0.96 ± 0.79
change in expression of gene gadC [1, 3]: 1.56 ± 0.80
change in expression of gene gadE [1, 3]: −0.46 ± 0.60
change in expression of gene gadW [1, 3]: −4.10 ± 0.99
change in expression of gene gadX [1, 3]: −2.01 ± 0.57
change in expression of gene gadY [1, 3]: −3.37 ± 0.80
change in expression of gene glpA [1, 3]: 5.44 ± 0.87
change in expression of gene glpB [1, 3]: 2.96 ± 0.64
change in expression of gene glpC [1, 3]: 2.92 ± 0.81
change in expression of gene groL [1, 3]: 4.05 ± 0.57
change in expression of gene groS [1, 3]: 4.43 ± 0.50
change in expression of gene hchA [1, 3]: 3.17 ± 0.60
change in expression of gene hslJ [1, 3]: 1.12 ± 0.66
change in expression of gene hslO [1, 3]: 1.72 ± 0.65
change in expression of gene hslR [1, 3]: 2.12 ± 0.65
change in expression of gene hslU [1, 3]: 1.52 ± 0.56
change in expression of gene hslV [1, 3]: 0.88 ± 0.62
change in expression of gene ibpA [1, 3]: 5.74 ± 1.21
change in expression of gene ibpB [1, 3]: 6.79 ± 1.50
change in expression of gene lipA [1, 3]: 0.31 ± 0.60
change in expression of gene lipB [1, 3]: −2.33 ± 0.69
change in expression of gene narG [1, 3]: 2.47 ± 0.65
change in expression of gene narH [1, 3]: 1.99 ± 0.62
change in expression of gene narI [1, 3]: 0.99 ± 0.94
change in expression of gene narJ [1, 3]: 1.39 ± 0.69
change in expression of gene narK [1, 3]: −0.93 ± 0.90
change in expression of gene potA [1, 3]: −5.42 ± 0.87
change in expression of gene potB [1, 3]: −2.50 ± 1.32
change in expression of gene potC [1, 3]: −2.97 ± 1.28
change in expression of gene pspA [1, 3]: 5.48 ± 0.55
change in expression of gene pspB [1, 3]: 3.26 ± 0.68
change in expression of gene rpoA [1, 3]: −0.58 ± 0.44
change in expression of gene rpoB [1, 3]: −0.72 ± 0.40
change in expression of gene rpoC [1, 3]: −1.03 ± 0.39
change in expression of gene rpoD [1, 3]: 1.30 ± 0.70
change in expression of gene rpoE [1, 3]: −1.10 ± 0.62
change in expression of gene rpoH [1, 3]: 1.72 ± 0.52
change in expression of gene rpoN [1, 3]: −1.50 ± 0.49
change in expression of gene rpoS [1, 3]: 1.73 ± 0.47
change in expression of gene rpoZ [1, 3]: −0.91 ± 0.54
change in expression of gene spy [1, 3]: 8.88 ± 0.87
change in expression of gene tatA [1, 3]: −2.04 ± 0.52
change in expression of gene tatB [1, 3]: −2.87 ± 0.60
change in expression of gene tatC [1, 3]: −4.38 ± 1.21
change in expression of gene tatD [1, 3]: −4.11 ± 1.20
change in expression of gene tatE [1, 3]: 0.70 ± 0.64
number of genes with significant changes in expression [1]: 831 genes

B1: MVD: mevalonate diphosphate decarboxylase of Saccharomyces cerevisiae, enzyme and gene/transcript (optimized gene SEQ ID NO:2) (protein)
chain: MTVYTASVTAPVNIATLKYWGKRDTKLNLPTNSSISVTLSQDDLRTLTSAATAPEFERDTLWLNGEPHSIDNERTQNCLRDLRQLRKEMESKDASLPTLSQWKLHIVSENNFPTAAGLASSAAGFAALVSAIAKLYQLPQSTSEISRIARKGSGSACRSLFGGYVAWEMGKAEDGHDSMAVQIADSSDWPQMKACVLVVSDIKKDVSSTQGMQLTVATSELFKERIEHVVPKRFEVMRKAIVEKDFATFAKETMMDSNSFHATCLDSFPPIFYMNDTSKRIISWCHTINQFYGETIVAYTFDAGPNAVLYYLAENESKLFAFIYKLFGSVPGWDKKFTTEQLEAFNHQFESSNFTARELDLELQKDVARVILTQVGSGPQETNESLIDAKTGLPKE
modifications: optimized gene; MVD optimized gene sequence
Isobutene production [2]: 6.44±0.95 pmol*min-1 *mg protein-1
